# ± gives the expanded uncertainty stated by the source.
# Conditions: for surface tension liquid-gas: Pendant drop shape; for mass density: 101.33 kPa, Liquid, Vibrating tube method
smiles,measurement,setting,value
"BrCCCBr [1,3-dibromopropane]",surface tension liquid-gas,293.15 K,39.66 ± 0.72 mN/m
same,surface tension liquid-gas,298.15 K,38.95 ± 0.71 mN/m
same,surface tension liquid-gas,303.15 K,38.33 ± 0.7 mN/m
same,surface tension liquid-gas,308.15 K,37.6 ± 0.68 mN/m
same,surface tension liquid-gas,313.15 K,37.12 ± 0.68 mN/m
"ClCCCCCCCl [1,6-dichlorohexane]",surface tension liquid-gas,293.15 K,35 ± 0.71 mN/m
same,surface tension liquid-gas,298.15 K,34.31 ± 0.69 mN/m
same,surface tension liquid-gas,303.15 K,33.73 ± 0.68 mN/m
same,surface tension liquid-gas,308.15 K,33.09 ± 0.67 mN/m
same,surface tension liquid-gas,313.15 K,32.7 ± 0.66 mN/m
"ClCCCCCCl [1,5-dichloropentane]",mass density,288.15 K,1103.31 ± 1 kg/m3
same,surface tension liquid-gas,293.15 K,35.02 ± 0.64 mN/m
same,mass density,293.15 K,1100.06 ± 1 kg/m3
same,surface tension liquid-gas,298.15 K,34.43 ± 0.63 mN/m
same,mass density,298.15 K,1095.01 ± 1 kg/m3
same,surface tension liquid-gas,303.15 K,33.85 ± 0.62 mN/m
same,mass density,303.15 K,1089.95 ± 1 kg/m3
same,surface tension liquid-gas,308.15 K,33.22 ± 0.61 mN/m
same,mass density,308.15 K,1084.89 ± 1 kg/m3
same,surface tension liquid-gas,313.15 K,32.78 ± 0.6 mN/m
same,mass density,313.15 K,1079.84 ± 1 kg/m3
same,mass density,318.15 K,1074.67 ± 1 kg/m3
same,mass density,328.15 K,1064.63 ± 1 kg/m3
"BrCCCCBr [1,4-dibromobutane]",surface tension liquid-gas,293.15 K,39.91 ± 0.72 mN/m
same,surface tension liquid-gas,298.15 K,39.46 ± 0.72 mN/m
same,surface tension liquid-gas,303.15 K,38.92 ± 0.71 mN/m
same,surface tension liquid-gas,308.15 K,38.29 ± 0.7 mN/m
same,surface tension liquid-gas,313.15 K,37.67 ± 0.68 mN/m
"BrCCBr [1,2-dibromoethane]",surface tension liquid-gas,293.15 K,38.81 ± 0.7 mN/m
same,surface tension liquid-gas,298.15 K,38.07 ± 0.69 mN/m
same,surface tension liquid-gas,303.15 K,37.48 ± 0.68 mN/m
same,surface tension liquid-gas,308.15 K,36.75 ± 0.67 mN/m
same,surface tension liquid-gas,313.15 K,36.1 ± 0.66 mN/m
CCCCCCO [hexan-1-ol],surface tension liquid-gas,288.15 K,26.34 ± 0.49 mN/m
same,surface tension liquid-gas,293.15 K,26.06 ± 0.48 mN/m
same,surface tension liquid-gas,298.15 K,25.71 ± 0.48 mN/m
same,mass density,298.15 K,815.18 ± 1 kg/m3
same,surface tension liquid-gas,303.15 K,25.34 ± 0.47 mN/m
same,surface tension liquid-gas,308.15 K,24.9 ± 0.5 mN/m
same,surface tension liquid-gas,313.15 K,24.52 ± 0.46 mN/m
same,surface tension liquid-gas,318.15 K,24.12 ± 0.45 mN/m
"ClCCCl [1,2-dichloroethane]",surface tension liquid-gas,293.15 K,28 ± 0.52 mN/m
same,surface tension liquid-gas,298.15 K,27.57 ± 0.51 mN/m
same,surface tension liquid-gas,303.15 K,27.06 ± 0.5 mN/m
same,surface tension liquid-gas,308.15 K,26.54 ± 0.49 mN/m
same,surface tension liquid-gas,313.15 K,26.02 ± 0.48 mN/m
"BrCCCCCCBr [1,6-dibromohexane]",surface tension liquid-gas,293.15 K,38.92 ± 0.71 mN/m
same,surface tension liquid-gas,298.15 K,38.36 ± 0.7 mN/m
same,surface tension liquid-gas,303.15 K,37.78 ± 0.69 mN/m
same,surface tension liquid-gas,308.15 K,37.21 ± 0.68 mN/m
same,surface tension liquid-gas,313.15 K,36.63 ± 0.67 mN/m
"ClCCCCl [1,3-dichloropropane]",mass density,288.15 K,1189.09 ± 1.1 kg/m3
same,surface tension liquid-gas,293.15 K,31.22 ± 0.57 mN/m
same,mass density,293.15 K,1184.88 ± 1.1 kg/m3
same,surface tension liquid-gas,298.15 K,30.77 ± 0.57 mN/m
same,mass density,298.15 K,1178.97 ± 1.1 kg/m3
same,surface tension liquid-gas,303.15 K,30.2 ± 0.56 mN/m
same,mass density,303.15 K,1173.1 ± 1.1 kg/m3
same,surface tension liquid-gas,308.15 K,29.36 ± 0.54 mN/m
same,mass density,308.15 K,1167.26 ± 1.1 kg/m3
same,surface tension liquid-gas,313.15 K,28.7 ± 0.53 mN/m
same,mass density,313.15 K,1161.46 ± 1.1 kg/m3
same,mass density,318.15 K,1154.88 ± 1.1 kg/m3
same,mass density,328.15 K,1142.62 ± 1.1 kg/m3
"BrCCCCCBr [1,5-dibromopentane]",surface tension liquid-gas,293.15 K,39.37 ± 0.71 mN/m
same,surface tension liquid-gas,298.15 K,38.65 ± 0.7 mN/m
same,surface tension liquid-gas,303.15 K,38.16 ± 0.69 mN/m
same,surface tension liquid-gas,308.15 K,37.6 ± 0.68 mN/m
same,surface tension liquid-gas,313.15 K,37.23 ± 0.68 mN/m
O [water],surface tension liquid-gas,288.15 K,73.43 ± 1.2 mN/m
same,surface tension liquid-gas,293.15 K,72.84 ± 1.2 mN/m
same,surface tension liquid-gas,298.15 K,72.14 ± 1.2 mN/m
"ClCCCCCl [1,4-dichlorobutane]",surface tension liquid-gas,293.15 K,33.73 ± 0.62 mN/m
same,surface tension liquid-gas,298.15 K,33.15 ± 0.61 mN/m
same,surface tension liquid-gas,303.15 K,32.55 ± 0.6 mN/m
same,surface tension liquid-gas,308.15 K,32.1 ± 0.59 mN/m
same,surface tension liquid-gas,313.15 K,31.59 ± 0.58 mN/m
BrCBr [dibromomethane],surface tension liquid-gas,293.15 K,38.5 ± 0.7 mN/m
same,surface tension liquid-gas,298.15 K,37.76 ± 0.69 mN/m
same,surface tension liquid-gas,303.15 K,37.09 ± 0.68 mN/m
same,surface tension liquid-gas,308.15 K,36.32 ± 0.66 mN/m
same,surface tension liquid-gas,313.15 K,35.55 ± 0.65 mN/m
CCCCCO [pentan-1-ol],surface tension liquid-gas,293.15 K,25.17 ± 0.47 mN/m
same,surface tension liquid-gas,298.15 K,24.85 ± 0.46 mN/m
same,mass density,298.15 K,810.84 ± 1 kg/m3
same,surface tension liquid-gas,303.15 K,24.4 ± 0.5 mN/m
same,surface tension liquid-gas,308.15 K,23.96 ± 0.45 mN/m
same,surface tension liquid-gas,313.15 K,23.62 ± 0.44 mN/m
same,surface tension liquid-gas,318.15 K,23.28 ± 0.44 mN/m
